The values that follow come from patent publication US10662146B2, “Prodrugs of fencamfamine” (Praxis Bioresearch, LLC, priority 2015, dated 2020).

This test deals with spontaneous locomotor activity. The test can be described thus: Spontaneous locomotor activity (sLMA), oral administration. In kind it is in vivo, Male Sprague-Dawley (SD) rats. Conditions: p.o. 1, 5 or 10 mg/kg equivalent of PRX-002 (−), 60 min before 60 min test, vs vehicle. The procedure:
Male Sprague-Dawley (SD) were housed in groups of three under controlled conditions. Water and food were available ad libitum. The rats were kept for 1 week under these conditions before behavioral test. On the day of test rats were allowed to acclimate to the testing room for at least 30 min before test compound administration. Rats were randomly assigned into 4 groups.
Vehicle was 0.1% Tween-80 and 0.5% carboxymethylcellulose to which respective amount of PRX-P4-003 was added to obtain a clear solution.
Animals were p.o. administered with Veh or 3 doses of PRX-P4-003 [1, 5 or 10 mg/kg equivalent dose of active compound PRX-002 (−)] at 60 min before spontaneous locomotor activity (sLMA) test.
The rat was placed at the center of test chamber for the 60 min sLMA video recording. 60 min of spontaneous locomotion activity was video recorded and off line analyzed with Animal Behavior Video Tracking Analysis System (Ji Liang Software Technology Co., Ltd., Shanghai, China). Total traveling distance (cm) and duration (sec) of locomotor activity of every 15 min is presented FIGS. 11A and 11B.

Entries after “also recorded” stand apart in the source; their conditions may differ.

On to `CCCCCCCCCCCCCCCCCC(=O)OCOC(=O)N(CC)C1C2CCC(C2)C1c1ccccc1` (single isomer, unassigned) [PRX-P4-003, N-(Octadecanoyloxymethoxycarbonyl)-(−)-N-ethyl-3-phenylbicyclo[2.2.1]heptan-2-amine], for which the “Spontaneous locomotor activity (sLMA): total traveling distance and duration” value is “dose dependent increase in sLMA; also recorded: both traveling distance and locomotion duration increased”.
